According to patent publication US10596172B2 (Celgene CAR LLC, priority 2008, dated 2020):

Assays:
BTK [1] = molecular target: T1, BTK (Homo sapiens (Human), UniProt Q06187); test: Mass spectrometry for BTK (covalent modification of intact protein); format: binding; conditions: 1 hr, 10x fold excess of compound
Description: Intact BTK was incubated for 1 hr at a 10× fold excess of I-7 to protein. Aliquots (2 μl) of the samples were diluted with 10 μl of 0.1% TFA prior to micro C4 ZipTipping directly onto the MALDI target using Sinapinic acid as the desorption matrix (10 mg/ml in 0.1% TFA:Acetonitrile 20:80).

BTK [2] = molecular target: T1, BTK; test: BTK occupancy from in vitro samples by ELISA (Ramos cells); format: cell-based
Description: In order to determine the amount of free BTK in cell or tissue lysates, an ELISA protocol was employed that utilizes a biotinylated probe compound that binds only to free, unoccupied BTK. The conjugated biotin is captured on a streptavidin-coated ELISA plate and detected with a mouse anti-BTK antibody (Becton Dickinson, Franklin Lakes, N.J., USA) and a secondary goat anti-mouse HRP antibody (Zymed, South San Francisco, Calif., USA).
All samples were prepared with equal concentrations of Biorad lysis buffer (Hercules, Calif., USA), 0.5% bovine serum albumin in PBS with 0.05% Tween-20 to give a final concentration of 1 μM I-215. Samples were incubated in a mixing plate for 1 hr at room temperature while shaking to allow probe compound I-215 to bind to free BTK. After incubation with I-215, samples were added to a washed, streptavidin-coated ELISA plate (Pierce, Rockford, Ill., USA) and incubated for 1 hr at room temperature while shaking. The plate was then washed with PBS containing 0.05% Tween-20 using an automatic plate washer. Anti-BTK antibody was prepared at 1:1000 dilution in 0.5% BSA in PBS (0.05% Tween-20) and added to the ELISA plate. The plate was incubated for 1 hr at room temperature while shaking. The plate was washed as described above and the secondary HRP antibody was prepared at 1:5000 dilution in 0.5% BSA in PBS (0.05% Tween-20). The plate was incubated and washed as described above. TMB was added to the plate, and OD650 was monitored until reaching 1 OD unit. The reaction was then stopped with addition of H2SO4. The plate was analyzed using Gen 5 software, and a 4 Parameter Logistic curve was employed to quantitate samples. Recombinant BTK (Invitrogen, Carlsbad, Calif., USA) was used for the standard curve.
A concentration designated as “A” is greater than 1 nM; a concentration designated as “B” is greater than 10 nM; and a concentration designated as “C” is greater than 50 nM.

Human naïve B cells = test: Human primary B cell proliferation assay; format: cell-based; conditions: 5 μg/ml α-IgM 72 hours, 3H-thymidine incorporation
Description: Human naïve B cells were purified from 100 mL whole blood using a MACS purification kit designed to isolate CD19+, IgD+ cells by negative selection. Purified naïve B cells were resuspended in RPMI complete and stimulated with 5 μg/ml α-IgM for 72 hours. ^3H-Thymidine was included in the culture media for the final 16 h, cells were harvested and ^3H incorporation measured. Inhibition of B cell proliferation correlates with inhibition of BTK substrate phosphorylation after α-IgM stimulation.

T1 sequence (Q06187 whole entry): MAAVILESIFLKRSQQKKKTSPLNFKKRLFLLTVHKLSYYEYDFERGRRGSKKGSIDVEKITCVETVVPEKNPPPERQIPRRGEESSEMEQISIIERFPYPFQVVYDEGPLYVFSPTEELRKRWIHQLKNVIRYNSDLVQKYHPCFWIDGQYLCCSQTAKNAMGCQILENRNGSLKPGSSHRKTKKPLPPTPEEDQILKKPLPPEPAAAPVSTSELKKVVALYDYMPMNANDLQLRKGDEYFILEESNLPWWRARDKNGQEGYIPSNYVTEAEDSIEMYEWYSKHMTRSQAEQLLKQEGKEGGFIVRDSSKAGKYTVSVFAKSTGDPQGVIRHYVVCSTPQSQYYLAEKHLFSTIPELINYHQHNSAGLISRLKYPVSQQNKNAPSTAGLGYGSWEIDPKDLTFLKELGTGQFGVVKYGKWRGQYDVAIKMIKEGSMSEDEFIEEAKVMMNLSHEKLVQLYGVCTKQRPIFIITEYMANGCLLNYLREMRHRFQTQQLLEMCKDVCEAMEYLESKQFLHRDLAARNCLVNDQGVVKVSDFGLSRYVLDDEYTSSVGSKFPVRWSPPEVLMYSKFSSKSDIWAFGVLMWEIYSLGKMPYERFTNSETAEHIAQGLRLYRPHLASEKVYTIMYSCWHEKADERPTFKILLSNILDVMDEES

`C=CC(=O)Nc1cccc(Nc2nc(Nc3ccccc3)ncc2C)c1` [Compound I-7, N-(3-(5-methyl-2-(phenylamino)pyrimidin-4-ylamino)phenyl)acrylamide] was tested, and the “covalent modification of BTK by mass spectrometry” value (BTK [1]) was “complete modification”, the “>50% occupancy (concentration at which >50% of BTK is occupied)” value (BTK [2]) was “A (greater than 1 nM)” and the “>90% occupancy (concentration at which >90% of BTK is occupied)” value (BTK [2]) was “B (greater than 10 nM)”. It also gave an EC50 (Human naïve B cells) of 1 to 10 nM.
